Experiments:
[1] = system: NCI-H292 lung cancer cells; assay: FDA drug screening, complete media vs cholesterol-free media with simvastatin (TABLE 2); assay type: cell-based, human; details: for Cholesterol-free media + simvastatin (0.04 μM) / Complete Media: NCI-H292 cells
[2] = system: NCI-H292 lung cancer cells; assay: FDA drug screening, complete media vs cholesterol-free media without statin (TABLE 1); assay type: cell-based, human
[3] = cholesterol-free media with simvastatin 0.04 μM, FDA drug library screen (TABLE 2)
[4] = complete media, FDA drug library screen (TABLE 2)
[5] = complete media minus cholesterol-free media + simvastatin (0.04 μM), >0 enhanced anti-cancer activity, about 0 neutral, <0 antagonist
[6] = Complete minus Cholesterol-free; >0 enhanced anti-cancer activity, about 0 neutral, <0 antagonist
[7] = NCI-H292 cells, cholesterol-free media without statin
[8] = NCI-H292 cells, cholesterol-free media without statin, FDA drug library screen
[9] = complete vs cholesterol-free media; >0 enhanced anti-cancer activity, about 0 neutral, <0 antagonist
[10] = FDA drug library screen, cholesterol-free media with simvastatin 0.04 μM
[11] = FDA drug library screen, complete media
[12] = complete media minus cholesterol-free media + simvastatin, >0 enhanced anti-cancer activity, about 0 neutral, <0 antagonist
[13] = Complete minus Cholesterol-free; greater than 0 enhanced anti-cancer activity, about 0 neutral, below 0 antagonist
[14] = NCI-H292 cells, FDA drug library screen, cholesterol-free media without statin
[15] = NCI-H292 cells, FDA drug library screen, complete media
[16] = complete media vs cholesterol-free media + simvastatin (0.04 μM), >0 enhanced anti-cancer activity, about 0 neutral, <0 antagonist
[17] = FDA library drug in cholesterol-free media with simvastatin 0.04 μM
[18] = NCI-H292 cells, complete media, FDA drug library screen
[19] = FDA library drug in complete media

SMILES	Cholesterol-free media + simvastatin (0.04 μM) [1, 3]	Complete Media [1, 4]	Difference [1, 5]	Cholesterol-free [2, 8]	Difference [2, 9]	Cholesterol-free media + simvastatin (0.04 μM) [1, 10]	Complete Media [1, 11]	Difference [1, 16]	Complete [2, 18]	other results
NC(=O)c1cccc2cn(-c3ccc([C@@H]4CCCNC4)cc3)nc12 [Niraparib]	1.191	1.193	0.00	–	–	–	–	–	–	Difference [2, 6]: −0.30; Cholesterol-free [2, 7]: 1.29; Complete ([2]; NCI-H292 cells, complete media): 0.9917
CC(=O)Oc1ccccc1C(=O)Nc1ncc([N+](=O)[O-])s1 [Nitazoxanide]	1.209	1.209	0.00	1.033	0.12	–	–	–	–	–
O=C1CCCC(=O)C1C(=O)c1ccc(C(F)(F)F)cc1[N+](=O)[O-] [Nitisinone]	–	–	–	–	–	0.9427	1.188	–	–	Difference [1, 12]: 0.25; Difference [2, 13]: −0.08; Cholesterol-free [2, 14]: 0.8746; Complete [2, 15]: 0.7963
CCOC(=O)C1=C(C)NC(C)=C(C(=O)OC)C1c1cccc([N+](=O)[O-])c1 (stereo not drawn) [Nitrendipine]	1.103	1.042	−0.06	–	–	–	–	–	–	Cholesterol-free [2, 7]: 1.587; Complete ([2]; NCI-H292 cells, complete media): 1.208; Difference ([2]; complete vs cholesterol-free media; greater than 0 enhanced anti-cancer activity, about 0 neutral, below 0 antagonists): −0.38
O=C1CN(/N=C/c2ccc([N+](=O)[O-])o2)C(=O)N1 [Nitrofurantoin]	–	–	–	–	–	0.848	0.7708	−0.08	–	Difference [2, 13]: −0.16; Cholesterol-free [2, 14]: 1.115; Complete [2, 15]: 0.9573
NC(=O)N/N=C/c1ccc([N+](=O)[O-])o1 [Nitrofurazone]	–	–	–	1.281	0.13	–	–	−0.70	1.416	Cholesterol-free media + simvastatin (0.04 μM) [1, 17]: 1.854
O=[N+]([O-])c1ccc(O)c2ncccc12 [Nitroxoline]	–	–	–	0.8448	0.18	1.871	1.743	−0.13	1.027	–
CNC(=C[N+](=O)[O-])NCCSCc1csc(CN(C)C)n1 [Nizatidine]	–	–	–	–	–	1.118	0.9809	−0.14	–	Difference [2, 6]: −0.23; Cholesterol-free [2, 7]: 1.253; Complete ([2]; NCI-H292 cells, complete media): 1.026
CC(=O)O[C@]1(C(C)=O)CC[C@H]2[C@@H]3C=C(C)C4=CC(=O)CC[C@@H]4[C@H]3CC[C@@]21C [Nomegestrol acetate]	0.9875	0.9519	−0.04	–	–	–	–	–	–	Difference [2, 13]: −0.14; Cholesterol-free [2, 14]: 0.9161; Complete [2, 15]: 0.7734
CCCCCCCCC(=O)NCc1ccc(O)c(OC)c1 [Nonivamide]	–	–	–	–	–	–	–	–	–	Cholesterol-free media + simvastatin (0.04 μM) ([1]; cholesterol-free media with simvastatin 0.04 μM, […]): 1.059; Complete Media ([1]; complete media, […]): 1.139; Difference ([1]; complete media minus cholesterol-free media + simvastatin, […]): 0.08; Complete ([2]; NCI-H292 cells, complete media): 1.201; Difference ([2]; complete vs cholesterol-free media; […]): −0.42
NC[C@H](O)c1ccc(O)c(O)c1 [Norepinephrine]	0.9481	0.884	−0.06	0.981	–	–	–	–	0.9634	Difference [2, 6]: −0.02
C#C[C@]1(OC(C)=O)CC[C@H]2[C@@H]3CCC4=CC(=O)CC[C@@H]4[C@H]3CC[C@@]21C [Norethindrone acetate]	–	–	–	–	–	–	–	−0.73	–	Cholesterol-free media + simvastatin (0.04 μM) [1, 17]: 1.695; Complete Media [1, 19]: 0.9691; Difference [2, 13]: −0.12; Cholesterol-free [2, 14]: 1.033; Complete [2, 15]: 0.9116
C#C[C@]1(O)CC[C@H]2[C@@H]3CCC4=CC(=O)CC[C@@H]4[C@H]3CC[C@@]21C [Norethindrone]	–	–	–	1.186	0.23	0.8746	1.458	–	1.412	Difference [1, 12]: 0.58
CCn1cc(C(=O)O)c(=O)c2cc(F)c(N3CCNCC3)cc21 [Norfloxacin]	–	–	–	1.043	0.08	–	–	−0.30	1.123	Cholesterol-free media + simvastatin (0.04 μM) [1, 17]: 1.696; Complete Media [1, 19]: 1.396
